Consider two molecules from PMC6973046 (Journal of Thrombosis and Haemostasis, 2019).

The subject of one series is humans. To be noted: cited from earlier work.
In the next series the target is T1, tissue transglutaminase (Homo sapiens, UniProt P21980).
T1 sequence (P21980 1-687): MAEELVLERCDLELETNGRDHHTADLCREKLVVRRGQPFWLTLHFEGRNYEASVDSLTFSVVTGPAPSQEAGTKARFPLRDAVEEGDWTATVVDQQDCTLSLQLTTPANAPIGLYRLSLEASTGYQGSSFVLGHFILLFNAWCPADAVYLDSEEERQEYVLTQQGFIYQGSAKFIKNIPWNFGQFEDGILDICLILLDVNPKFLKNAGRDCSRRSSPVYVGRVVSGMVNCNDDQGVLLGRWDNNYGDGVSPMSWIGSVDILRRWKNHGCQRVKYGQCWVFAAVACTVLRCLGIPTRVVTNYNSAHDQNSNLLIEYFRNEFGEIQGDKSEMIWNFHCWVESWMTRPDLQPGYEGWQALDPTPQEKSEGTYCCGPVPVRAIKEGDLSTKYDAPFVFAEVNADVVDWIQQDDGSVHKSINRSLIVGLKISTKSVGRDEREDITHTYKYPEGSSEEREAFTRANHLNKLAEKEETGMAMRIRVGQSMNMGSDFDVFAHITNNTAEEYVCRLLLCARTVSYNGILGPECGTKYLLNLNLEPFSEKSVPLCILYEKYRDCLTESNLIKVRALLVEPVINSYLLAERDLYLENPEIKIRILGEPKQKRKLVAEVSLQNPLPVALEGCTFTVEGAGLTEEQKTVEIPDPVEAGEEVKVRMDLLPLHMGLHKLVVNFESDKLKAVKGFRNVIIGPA
The series can be described thus: Isopeptidase assay. It is filed as biochemical. To be noted: read-out: IC50 against tissue transglutaminase in the isopeptidase assay.

On to `CCC(CC)CNC(=O)Cn1cccc(NC(=O)[C@H](CC/C=C/C(=O)OC)NC(=O)c2cncn2C)c1=O` [ZED1227], for which the Safety and tolerability entry with humans is “safe and well tolerated”.

Consider `CC(=O)CSc1n(C)c(C)c(C)[n+]1C` [L‐682.777], for which, on tissue transglutaminase, the IC50 (in general, the concentration that inhibits the measured activity by half) was roughly 250 nM.
